Where “and” joins values, the source holds several entries; their conditions need not be identical. Equal entries are not always repeated. Entries after “also recorded” stand apart in the source; their conditions may differ.
Legend:
Type in all cases: in vivo, human
[1] = test system: plasma biomarkers of inflammation; test: Plasma biomarkers of inflammation and AD in AD cohort; settings: for AB40 Median / AB42 Median / Chitinase-3 Median / IL-1β Median / IL-2 Median / IL-4 Median / IL-5 Median / IL-6 Median / IL-8 Median / IL-10 Median / IL-12p70 Median / IL-22 Median / INFg Median / NF-LIGHT Median / Neurogranin Median / TNFa Median / TREM-2 Median / Total Tau Median / hCRP Median / pTau-181 Median: plasma
From the text: (§1) Methods: All study procedures were approved by the IRB, and informed consent was obtained. Three cohorts of volunteers 45-80 years of age with well-controlled comorbidities (NOAD) and one cohort of AD patients diagnosed with cognitive impairment consistent with prodromal AD per International Working Group criteria or mild AD per National Institute on Aging—Alzheimer's Association criteria (n=6 active, 2 placebo per cohort) were enrolled. Participants were admitted to the study site for the duration of the dosing and returned 7-12 days after the last dose for a safety visit. Participants received NTRX-07 (10, 30, or 90 mg) or a placebo in a double-blinded randomization orally once daily for seven days. Subjects were assessed for changes in vital signs, including maneuvers to induce lightheadedness, electrocardiograms, 24-hour electroencephalograms (EEG), and safety laboratory studies. The second cohort returned and received a single repeat dose after a standard high-fat meal. The AD cohort also underwent cognitive testing and had blood samples for biomarkers drawn. Subjects had PK sampling done after the first and final dose of the study drug. An independent safety review committee conducted a blinded safety review of adverse events and plasma levels between each cohort.
(§2) Assessments: Subjects were assessed for changes in vital signs, orthostatic blood pressure, Romberg test, nystagmus, timed get up and go, electrocardiograms, electroencephalograms (EEG), and laboratory studies. Subjective questionnaires of drug effects (ARCI-M) were administered. Cohort B returned and received a single repeat dose after a standard high-fat meal. The AD cohort also underwent cognitive testing (MMSE, ADAS-COG, MOCA) and had blood samples for biomarkers drawn.
(§3) An informational letter was filed with the FDA to inform them of this study. The study was designed as follows: • 3 healthy cohorts (cohorts A-C) followed by AD cohort (cohort D) treated at MTD • 6 treated, 2 placebos in each cohort • Doses: 10, 30, 90 mg/treatment—latter doses can be adjusted based on PK assessment • In unit, 7 days of treatment • Monitor vertigo with various tests: (1) timed get-up and go, (2) Nystagmus test, (3) Romberg test, and (4) changes in orthostatic blood pressure (Day 1, 3 and 8) • Use 24 hr EEG monitoring for CNS safety assessment • Assess plasma biomarkers of inflammation and AD pre- and post-treatment in AD cohort • Assess changes on cognition post-treatment using MMSE and ADAS-cog • Fed/fasted study to determine food effects on PK as a subset of the Phase 1b
(§4) Exploratory endpoints include cognitive testing and potential plasma biomarkers of inflammation. The small group size (6 on treatment, 2 placebo) precludes statistical analysis, but the goals were to gain insights for future study design. Exploratory endpoints include: • MMSE, MOCA & ADAS-COG • IL-12p70, IL-10, IL-4, IL-5, INFg, IL-6, IL-8, IL-22, TNFa, IL-10, hCRP, Chitinase-3, TREM-2, IL-2, Neurogranin, Total Tau, AB42, AB40, NF-LIGHT, pTau-181

[2] = test system: volunteers and AD patients; test: 24-hour EEG safety assessment and post-hoc qEEG analysis; settings: AD patients, 90 mg QD 7 days, post hoc exploratory
Method: Protocol-specified EEG assessments were for safety assessment of any potential epileptogenic changes. A post-hoc analysis of quantitative EEG (qEEG) changes was also performed.
as §3
No subjects had clinically meaningful abnormal values or changes from baseline, nor differences between placebo and active drug, in EEG readings in any of the 4 cohorts.

[3] = test system: volunteers and AD patients; test: Orthostatic blood pressure and vertigo tests (timed get-up and go, Nystagmus test, Romberg test); settings: Phase 1b
Method: as §2, §3

[4] = test system: healthy volunteers; test: Phase 1a single ascending dose study
[5] = test system: volunteers and AD patients; test: Phase 1b MAD safety and tolerability (adverse events, ECG, safety labs)
From the text: as §1, §2, §3

[6] = test system: AD cohort; test: Cognitive testing ADAS-COG in AD cohort; settings: 90 mg QD 7 days
From the text: as §1, §2, §4

[7] = after 7 days of 90 mg QD, Day 8
[8] = Phase 1b, individual subjects on NTRX-07, Cohorts C and D (90 mg QD)

CC1(Cc2ccccc2)COc2cc(C(=O)N3CCCCC3)ccc21 (stereo not drawn) [NTRX-07, 3-benzyl-3-methyl-2,3-dihydrobenzofuran-6-carboxylic acid-piperidine amide]
Changes in plasma biomarkers ([1]; 90 mg QD 7 days): No significant changes in biomarkers or plasma biomarkers; also recorded: no consistent changes
AB40 Median ([1]; 90 mg QD, Day 1 (baseline)): 232.84 pg/mL
AB42 Median ([1]; 90 mg QD, Day 1 (baseline)): 8.29 pg/mL
Chitinase-3 Median ([1]; 90 mg QD, Day 1 (baseline)): 43668.33 pg/mL
IL-1β Median ([1]; 90 mg QD, Day 1 (baseline)): 0.13 pg/mL
IL-2 Median ([1]; 90 mg QD, Day 1 (baseline)): 0.16 pg/mL
IL-4 Median ([1]; 90 mg QD, Day 1 (baseline)): 1.38 pg/mL
IL-5 Median ([1]; 90 mg QD, Day 1 (baseline)): 0.17 pg/mL
IL-6 Median ([1]; 90 mg QD, Day 1 (baseline)): 2.19 pg/mL
IL-8 Median ([1]; 90 mg QD, Day 1 (baseline)): 7.65 pg/mL
IL-10 Median ([1]; 90 mg QD, Day 1 (baseline)): 0.35 pg/mL
IL-12p70 Median ([1]; 90 mg QD, Day 1 (baseline)): 0.34 pg/mL
IL-22 Median ([1]; 90 mg QD, Day 1 (baseline)): 0.9 pg/mL
INFg Median ([1]; 90 mg QD, Day 1 (baseline)): 0.08 pg/mL
NF-LIGHT Median ([1]; 90 mg QD, Day 1 (baseline)): 18.24 pg/mL
Neurogranin Median ([1]; 90 mg QD, Day 1 (baseline)): 671.19 pg/mL
TNFa Median ([1]; 90 mg QD, Day 1 (baseline)): 0.69 pg/mL
TREM-2 Median ([1]; 90 mg QD, Day 1 (baseline)): 38468.67 pg/mL
Total Tau Median ([1]; 90 mg QD, Day 1 (baseline)): 2.07 pg/mL
hCRP Median ([1]; 90 mg QD, Day 1 (baseline)): 4135.17 ng/mL
pTau-181 Median ([1]; 90 mg QD, Day 1 (baseline)): 21.53 pg/ml
AB40 Median [1, 7]: 226.52 pg/mL
AB42 Median [1, 7]: 8.57 pg/mL
Chitinase-3 Median [1, 7]: 40345.17 pg/mL
IL-1β Median [1, 7]: 0.11 pg/mL
IL-2 Median [1, 7]: 0 pg/mL
IL-4 Median [1, 7]: 1.14 pg/mL
IL-5 Median [1, 7]: 0.19 pg/mL
IL-6 Median [1, 7]: 2.44 pg/mL
IL-8 Median [1, 7]: 10.41 pg/mL
IL-10 Median [1, 7]: 0.38 pg/mL
IL-12p70 Median [1, 7]: 0.33 pg/mL
IL-22 Median [1, 7]: 0.87 pg/mL
INFg Median [1, 7]: 0.08 pg/mL
NF-LIGHT Median [1, 7]: 18.49 pg/mL
Neurogranin Median [1, 7]: 881.02 pg/mL
TNFa Median [1, 7]: 0.83 pg/mL
TREM-2 Median [1, 7]: 39576.17 pg/mL
Total Tau Median [1, 7]: 2.03 pg/mL
hCRP Median [1, 7]: 4211.88 ng/mL
pTau-181 Median [1, 7]: 20.16 pg/ml
qEEG mean frequency (AD effect) [2]: treatment partially reversed this AD effect; also recorded: Trend towards improvement; also recorded: partial reversion of AD effect; also recorded: increasing mean frequency
Orthostatic events observed during trial: Severity ([3]; individual subjects on NTRX-07 (Cohort B 30 mg, C and D 90 mg QD)): Mild
Primary side effect observed ([3]; usually with early doses): mild transient orthostatic changes in blood pressure
Orthostasis: Incidences ([3]; treated subjects): 16.7%
Orthostasis: Subjects who had an incident ([3]; treated subjects): 16.7%
No adverse events level ([4]; Phase 1a single ascending dose): 2 mg/kg
Adverse events in Phase 1a ([4]; single ascending dose): Only minor, non-dose limiting adverse events
Changes in ECG or safety labs ([5]; Phase 1b): No clinically meaningful changes
Dose-limiting toxicities / serious adverse events ([5]; Phase 1b, 10, 30, 90 mg oral QD for 7 days): no dose-limiting or serious adverse events; also recorded: safely administered; also recorded: No dose limiting toxicities at any of the tested doses
Adverse events observed during trial: Description of Event [5, 8]: Subfebrility; also recorded: Heartburn; also recorded: Dry mouth; also recorded: Xerostomia; also recorded: Hypertension; also recorded: Nausea; also recorded: Hypertension,; also recorded: tachycardia; also recorded: Dizziness; also recorded: Presyncope; also recorded: Weakness
Adverse events observed during trial: Related to Study Drug? [5, 8]: Possible (7×) and Probable and None (2×)
Adverse events observed during trial: Severity [5, 8]: Mild (8×) and Moderate (2×)
ADAS-COG Mean (StdDev) ([6]; Day 8): 12.72 (1.56)
ADAS-COG ([6]; Day 8, individual subjects): 11.00 and 15.33 and 11.67 and 12.67 and 12.00 and 13.67
ADAS-COG Mean (StdDev) ([6]; Day −2 (baseline)): 17.50 (2.83)
ADAS-COG ([6]; Day −2 (baseline), individual subjects): 17.00 and 18.33 and 13.33 and 22.00 and 18.00 and 16.33
ADAS-COG Mean (StdDev) ([6]; EOS Day 14-19): 13.17 (3.46)
ADAS-COG ([6]; EOS Visit (Day 14-19), individual subjects): 9.33 and 19.33 and 11.00 and 12.00 and 13.00 and 14.33
ADAS-COG trend ([6]; immediately post-treatment): Trend toward improvement

From patent US20250082624A1, “METHODS OF TREATING COGNITIVE IMPAIRMENT” (NeuroTherapia, Inc., priority 2023, published 2025)
